In PMC7812727, “Neuropilin 1 and Neuropilin 2 gene invalidation or pharmacological inhibition reveals their relevance for the treatment of metastatic renal cell carcinoma” (Journal of Experimental & Clinical Cancer Research : CR, 2021):

Columns and labels:
NRP2 (Neuropilin 2) = molecular target: T1, NRP2 (Neuropilin 2) (Homo sapiens, UniProt O60462); test: plate-based competitive binding assay: displacement of biotinylated VEGFA, or of VEGFC, from coated recombinant human NRP2 (chemiluminescence); format: biochemical
T1 construct: recombinant human NRP2
T1 sequence (O60462 21-931): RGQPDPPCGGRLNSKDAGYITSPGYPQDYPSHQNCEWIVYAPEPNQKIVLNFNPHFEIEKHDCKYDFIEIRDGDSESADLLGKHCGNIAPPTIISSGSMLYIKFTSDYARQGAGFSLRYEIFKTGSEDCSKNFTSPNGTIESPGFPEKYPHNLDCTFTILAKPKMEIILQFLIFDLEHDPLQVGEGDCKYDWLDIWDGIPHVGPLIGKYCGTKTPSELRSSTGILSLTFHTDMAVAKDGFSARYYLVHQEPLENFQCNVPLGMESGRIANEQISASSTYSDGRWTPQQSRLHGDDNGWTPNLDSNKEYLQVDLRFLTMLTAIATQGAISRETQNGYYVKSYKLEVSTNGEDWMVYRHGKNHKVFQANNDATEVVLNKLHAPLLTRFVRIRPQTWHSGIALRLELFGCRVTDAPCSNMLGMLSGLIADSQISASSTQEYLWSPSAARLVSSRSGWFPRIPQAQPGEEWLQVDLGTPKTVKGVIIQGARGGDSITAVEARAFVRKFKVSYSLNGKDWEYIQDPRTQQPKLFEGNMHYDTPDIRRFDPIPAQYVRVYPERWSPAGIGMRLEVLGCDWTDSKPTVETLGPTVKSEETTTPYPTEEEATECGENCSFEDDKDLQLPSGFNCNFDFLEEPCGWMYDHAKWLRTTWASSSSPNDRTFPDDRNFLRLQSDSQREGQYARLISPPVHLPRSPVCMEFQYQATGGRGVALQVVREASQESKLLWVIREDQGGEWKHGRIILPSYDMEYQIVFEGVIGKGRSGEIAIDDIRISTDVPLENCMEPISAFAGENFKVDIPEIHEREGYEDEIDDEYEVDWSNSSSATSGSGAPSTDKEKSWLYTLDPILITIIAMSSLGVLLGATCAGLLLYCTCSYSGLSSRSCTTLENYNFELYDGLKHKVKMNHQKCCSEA
Text: plate-based competitive binding assay: displacement of biotinylated VEGFA, or of VEGFC, from coated recombinant human NRP2 (chemiluminescence) on NRP2 (Neuropilin 2) | NRPa-308 inhibited VEGFA/NRP1 and VEGFA/NRP2 binding in a dose-dependent manner

NRP1 (Neuropilin 1) = molecular target: T2, NRP1 (Neuropilin 1) (Homo sapiens, UniProt O14786); test: plate-based competitive binding assay: displacement of biotinylated VEGFA from coated recombinant human NRP1 (chemiluminescence); format: biochemical
T2 construct: recombinant human NRP1
Text: plate-based competitive binding assay: displacement of biotinylated VEGFA from coated recombinant human NRP1 (chemiluminescence) on NRP1 (Neuropilin 1) | NRPa-308 inhibited VEGFA/NRP1 and VEGFA/NRP2 binding in a dose-dependent manner

T2 sequence (O14786 22-923): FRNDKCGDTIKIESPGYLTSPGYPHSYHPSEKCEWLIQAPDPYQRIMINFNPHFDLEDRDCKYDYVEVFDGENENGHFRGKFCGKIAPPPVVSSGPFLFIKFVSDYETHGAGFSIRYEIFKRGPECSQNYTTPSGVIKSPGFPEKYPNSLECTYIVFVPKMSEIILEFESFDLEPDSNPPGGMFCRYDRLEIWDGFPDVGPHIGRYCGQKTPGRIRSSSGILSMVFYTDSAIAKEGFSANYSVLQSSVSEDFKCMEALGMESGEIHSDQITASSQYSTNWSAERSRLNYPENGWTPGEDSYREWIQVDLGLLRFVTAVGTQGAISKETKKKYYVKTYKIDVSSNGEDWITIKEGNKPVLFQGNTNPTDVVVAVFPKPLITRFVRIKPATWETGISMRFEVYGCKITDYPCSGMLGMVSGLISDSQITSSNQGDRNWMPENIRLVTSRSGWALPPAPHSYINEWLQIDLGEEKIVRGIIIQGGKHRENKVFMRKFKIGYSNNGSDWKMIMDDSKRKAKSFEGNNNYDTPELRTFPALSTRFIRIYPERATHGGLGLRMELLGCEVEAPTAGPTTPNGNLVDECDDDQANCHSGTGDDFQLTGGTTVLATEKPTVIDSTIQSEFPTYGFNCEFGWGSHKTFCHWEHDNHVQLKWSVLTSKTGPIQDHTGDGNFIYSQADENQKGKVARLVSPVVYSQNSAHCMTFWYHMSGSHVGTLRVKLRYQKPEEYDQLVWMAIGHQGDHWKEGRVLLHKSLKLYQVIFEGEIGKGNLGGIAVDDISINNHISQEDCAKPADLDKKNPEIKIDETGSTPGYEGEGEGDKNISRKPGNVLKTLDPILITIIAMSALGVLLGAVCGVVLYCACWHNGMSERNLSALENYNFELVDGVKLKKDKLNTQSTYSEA

CCOc1ccccc1NC(=O)c1ccc(C)c(S(=O)(=O)Nc2ccc(C)cc2)c1 [NRPa-308]
% maximal inhibition (NRP2 (Neuropilin 2)): ~ 40 % maximal inhibition
% maximal inhibition (NRP1 (Neuropilin 1)): ~ 40 % maximal inhibition
